{
  "source": "patent US20020193313A1",
  "about": "“Method of increasing the efficacy of chemotherapy in the treatment of tumors” (priority 2001, published 2002)",
  "origin": "cited, not measured here",
  "key": {"[1]": {"test_system": "locally advanced breast cancer", "conditions": "Tamoxifen to induce cell phase arrest, then estrogen to stimulate growth, 43% without synchronization"}, "[2]": {"test_system": "advanced stages of different types of cancer", "conditions": "topotecan for S phase synchronization followed by doxorubicin"}, "various types of cancer": {"test_system": "various types of cancer", "conditions": "in vitro"}},
  "data": [
    {"compound": "CC/C=C\\C/C=C\\C/C=C\\CCCCCCCC(=O)O", "note": "[alpha linoleic acid]", "values": [
      {"measurement": "effect on tumor growth", "setting": "tumor growth", "value": "stimulate tumor growth"}
    ]},
    {"compound": "CC/C(=C(\\c1ccccc1)c1ccc(OCCN(C)C)cc1)c1ccccc1", "note": "[Tamoxifen]", "values": [
      {"measurement": "patients whose tumors showed favorable response to phase specific chemotherapy", "setting": "[1]", "value": "approximately 82%"}
    ]},
    {"compound": "CC[C@@]1(O)C(=O)OCc2c1cc1n(c2=O)Cc2cc3c(CN(C)C)c(O)ccc3nc2-1", "note": "[topotecan]", "values": [
      {"measurement": "hematologic toxicity", "setting": "[2]", "value": "increased hematologic toxicity"}
    ]},
    {"compound": "NC(=O)NO", "note": "[hydrea]", "values": [
      {"measurement": "phase of cell cycle arrest", "setting": "in vitro T-cell lymphoma", "value": "arrest in the S phase"}
    ]},
    {"compound": "Cc1c(N)nc([C@H](CC(N)=O)NC[C@H](N)C(N)=O)nc1C(=O)N[C@H](C(=O)N[C@H](C)[C@@H](O)[C@H](C)C(=O)N[C@H](C(=O)NCCc1nc(-c2nc(C(=O)NCCCN[C@@H](C)c3ccccc3)cs2)cs1)[C@@H](C)O)[C@@H](O[C@@H]1O[C@@H](CO)[C@@H](O)[C@H](O)[C@@H]1O[C@H]1O[C@H](CO)[C@@H](O)[C@H](OC(N)=O)[C@@H]1O)c1c[nH]cn1", "note": "[peplomycin]", "values": [
      {"measurement": "cell cycle arrest", "setting": "various types of cancer", "value": "arrest the cell cycle"}
    ]},
    {"compound": "C[C@@]1(CO)[C@H](O)CC[C@@]2(C)[C@H]1CC[C@H]1C[C@@H]3C[C@@]12CC[C@]3(O)CO", "note": "[aphidicoline]", "values": [
      {"measurement": "phase of cell cycle arrest", "setting": "in vitro T-cell lymphoma", "value": "arrest late in the G1 phase"}
    ]},
    {"compound": "COC(=O)Nc1nc2ccc(C(=O)c3cccs3)cc2[nH]1", "note": "[nocodazole]", "values": [
      {"measurement": "phase of cell cycle arrest", "setting": "in vitro T-cell lymphoma", "value": "arrest in the M-phase"}
    ]},
    {"compound": "C=C[C@H]1C[N@@]2CC[C@H]1C[C@@H]2[C@@H](O)c1ccnc2ccc(OC)cc12", "note": "[quinidine]", "values": [
      {"measurement": "phase of cell cycle arrest", "setting": "in vitro breast cancer", "value": "arrest of in vitro breast cancer in the G1 phase"}
    ]},
    {"compound": "NC(Cn1ccc(=O)c(O)c1)C(=O)O", "note": "(stereo not shown) [mimosine]", "values": [
      {"measurement": "phase of cell cycle arrest", "setting": "in vitro T-cell lymphoma", "value": "arrest in the G1 phase"}
    ]},
    {"compound": "epidermal growth factor", "values": [
      {"measurement": "phase of cell cycle arrest", "setting": "in vitro breast cancer", "value": "arrest of in vitro breast cancer in the G1 phase"}
    ]}
  ]
}
